Activity calls are given as the source filed them. How the calls were made is not given here.
These compounds were tested against Ubiquitin-conjugating enzyme E2 N (Homo sapiens) (UniProt P61088) (assay: inhibition of UBC13-driven polyubiquitin chain formation – biochemical, TR-FRET, set 3, SAR follow-up (AID 602205)). Conditions: TR-FRET polyubiquitination assay.
Sequence of Ubiquitin-conjugating enzyme E2 N (Homo sapiens) (P61088 whole entry, looked up): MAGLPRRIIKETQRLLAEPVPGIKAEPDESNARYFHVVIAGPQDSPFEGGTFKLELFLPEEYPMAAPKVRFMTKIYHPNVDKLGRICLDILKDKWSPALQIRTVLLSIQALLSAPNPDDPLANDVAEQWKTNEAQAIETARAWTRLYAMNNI

Compound	IC50
Cc1ccc(Cl)cc1N1CCN(c2ncnc3c2nc2n3CCCC2)CC1	> 100 µM (inactive)
c1nc(N2CCC(N3CCCCC3)CC2)c2nc3n(c2n1)CCCC3	> 100 µM (inactive)
CC1CN(S(=O)(=O)c2ccc(NC(=O)CCCCCN3C(=O)c4ccccc4C3=O)cc2)CC(C)O1 (centres undefined)	> 100 µM (inactive)
Cc1ccc(NC(=O)C2CCN(c3ncnc4c3nc3n4CCCCC3)CC2)cc1C	inactive
COc1ccc(NC(=O)C2CCN(c3ncnc4c3nc3n4CCCCC3)CC2)cc1Cl	> 100 µM (inactive)
O=C(Nc1cc(F)ccc1F)C1CCN(c2ncnc3c2nc2n3CCCCC2)CC1	inactive
O=C(CCCCCN1C(=O)c2ccccc2C1=O)NCCc1ccccc1	> 100 µM (inactive)
Cc1c(Cl)cccc1NC(=O)C1CCN(c2ncnc3c2nc2n3CCCCC2)CC1	inactive
COc1cc(Cl)c(C)cc1NC(=O)C1CCN(c2ncnc3c2nc2n3CCCCC2)CC1	> 100 µM (inactive)
Cc1ccc(NC(=O)C2CCN(c3ncnc4c3nc3n4CCCCC3)CC2)cc1F	inactive
Cc1cc(Cl)ccc1NC(=O)C1CCN(c2ncnc3c2nc2n3CCCCC2)CC1	inactive
COc1ccc(Cl)cc1NC(=O)C1CCN(c2ncnc3c2nc2n3CCCCC2)CC1	inactive
Cc1ccc(NC(=O)C2CCN(c3ncnc4c3nc3n4CCCCC3)CC2)c(Cl)c1	> 100 µM (inactive)
Fc1ccccc1N1CCN(c2ncnc3c2nc2n3CCCC2)CC1	> 100 µM (inactive)
CCOc1ccc(CCNC(=O)CCCCCN2C(=O)c3ccccc3C2=O)cc1OCC	> 100 µM (inactive)
O=C(Nc1ccc(CN2CCCCC2)cc1)C1CCN(c2ncnc3c2nc2n3CCCCC2)CC1	> 100 µM (inactive)
O=C(Nc1cccc(Cl)c1)C1CCN(c2ncnc3c2nc2n3CCCCC2)CC1	9.63 µM
COc1cc(OC)c(NC(=O)C2CCN(c3ncnc4c3nc3n4CCCCC3)CC2)cc1Cl	> 100 µM (inactive)
c1ccc(CN2CCN(c3ncnc4c3nc3n4CCCC3)CC2)cc1	> 100 µM (inactive)
